By MIC is commonly meant the lowest concentration found to suppress growth.

Where a name gives a salt, the structure may show the parent alone.

The first experiment can be described thus: MIC of test compounds against various organisms. It is filed as cell-based. The settings on record: bound holds for all 11 organisms of the panel; read-out: MIC versus all these organisms. As for the experimental part: The MIC (jig/ml) of test compounds against various organisms was determined:
S. aureus Oxford, S. aureus WCUH29, S. pneumoniae 1629, S. pneumoniae N1387, S. pneumoniae ERY 2, E. faecalis I, E. faecalis 7, H. influenzae Ql, H. influenzae NEMC1, M. catarrhalis 1502, E. coli 7623.
On to `COc1ccc2nccc(NC(=O)[C@@]3(O)CCN(CCc4ccc5c(c4)NC(=O)CS5)C[C@@H]3O)c2n1` (racemic) [Example 18, (3S/R,4R/S)-3,4-Dihydroxy-1-[2-(3-oxo-3,4-dihydro-2H-benzo[1,4]thiazin-6-yl)-ethyl]-piperidine-4-carboxylic acid (6-methoxy-[1,5]naphthyridin-4-yl)amide dihydrochloride], for which the MIC is at most 4 µg/mL.

On to `COc1ccc2nccc(NC(=O)C3(O)CCN(C[C@H](O)c4ccc5c(n4)NC(=O)CS5)CC3)c2n1` (racemic) [Example 22, 4-Hydroxy-1-[2-(RS)-2-hydroxy-2-(3-oxo-3,4-dihydro-2H-pyrido[3,2-b][1,4]thiazin-6-yl)-ethyl]-piperidine-4-carboxylic acid (6-methoxy-[1,5]naphthyridin-4-yl)amide dihydrochloride], for which the MIC was at most 4 µg/mL. Still for that read-out and setting: under `COc1ccc2nccc(CCC3(O)CCN(CCc4ccc5c(c4)NC(=O)CS5)CC3)c2n1` [Example 28, 6-(2-{4-hydroxy-4-[2-(6-methoxy-[1,5]naphthyridin-4-yl)ethyl]piperidin-1yl}ethyl)-4H-benzo[1,4]thiazin-3-one] stands at most 4 µg/mL. On the same count and under the same terms, under `COc1ccc2nccc(NC(=O)C3(OC)CCN(C[C@@H](O)c4ccc5c(c4)OCCO5)CC3)c2n1` [Example 17, 1-[2-(2,3-Dihydro-benzo[1,4]dioxin-6-yl)-2-R,S-hydroxy-ethyl]-4-methoxy-piperidine-4-carboxylic acid (6-methoxy-[1,5]naphthyridin-4-yl)-amide dihydrochloride] stands at most 16 µg/mL; under `COc1ccc2nccc(NC(=O)C3(O)CCN(CCc4cc5c(cn4)OCCO5)CC3)c2n1` [Example 25, 1-[2-(2,3-Dihydro-[1,4]dioxino[2,3-c]pyridin-7-yl)-ethyl]4-hydroxy-piperidine-4-carboxylic acid(6-methoxy-[1,5]naphthyridin-4-yl)-amide hydrochloride], at most 4 µg/mL; under `COc1ccc2nccc(NC(=O)C3(C(N)=O)CCN(C[C@@H](O)c4ccc5c(c4)OCCO5)CC3)c2n1` [Example 21, 1-[2-(2,3-Dihydro-benzo[1,4]dioxin-6-yl)-2-R,S-hydroxy-ethyl]-piperidine-4,4-dicarboxylic acid amide (6-methoxy-[1,5]naphthyridin-4-yl)-amide dihydrochloride], at most 16 µg/mL.

As to `COc1ccc2nccc(NC(=O)C3(O)CCN(CC(O)c4ccc5c(c4)NC(=O)CS5)CC3)c2n1` (centres unmarked) [Example 9, 4-Hydroxy-1-[2-R,S-hydroxy-2-(3-oxo-3,4-dihydro-2H-benzo[1,4]thiazin-6-yl)-ethyl]-piperidine-4-carboxylic acid (6-methoxy-[1,5]naphthyridin-4-yl)amide oxalate], the MIC was at most 4 µg/mL. In the case of `COc1ccc2nccc(CCC3(O)CCN(C[C@H](O)c4ccc5c(c4)NC(=O)CS5)CC3)c2n1` (racemic) [Example 27, 6-((R,S)-1-Hydroxy-2-(4-hydroxy-4-[2-(6-methoxy-[1,5]naphthyridin-4-yl)ethyl]piperidin-1yl}ethyl)-4H-benzo[1,4]thiazin-3-one], the minimum inhibitory concentration (MIC) was at most 4 µg/mL. As for `COc1ccc2nccc(NC(=O)C3(OC)CCN(CC(O)c4ccc5c(c4)NC(=O)CS5)CC3)c2n1` (centres unmarked) [Example 16, 1-[2-R,S-Hydroxy-2-(3-oxo-3,4-dihydro-2H-benzo[1,4]thiazin-6-yl)-ethyl]-4-methoxy-piperidine-4-carboxylic acid (6-methoxy-[1,5]naphthyridin-4-yl)-amide dihydrochloride], the MIC was at most 4 µg/mL. Still for that read-out and setting: under `COc1ccc2nccc(N3CCC4(CCN(C[C@H](O)c5ccc6c(c5)NC(=O)CO6)CC4)C3=O)c2n1` [Example 7, 6-{1-R,S-Hydroxy-2-[2-(6-methoxy-[1,5]naphthyridin-4-yl)-1-oxo-2,8-diaza-spiro[4.5]dec-8-yl]-ethyl)4H-benzo[1,4]oxazin-3-one oxalate] stands at most 16 µg/mL; under `COc1cc(F)c2nccc(NC(=O)C3(O)CCN(CCc4cc5c(cn4)OCCO5)CC3)c2c1` [Example 26, 1-[2-(2,3-Dihydro-[1,4]dioxino[2,3-c]pyridin-7-yl)-ethyl]-4-hydroxy-piperidine-4-carboxylic acid(8-fluoro-6-methoxy-quinolin-4-yl)-amide hydrochloride], at most 4 µg/mL. Regarding `COc1ccc2nccc(NC(=O)C3(OC)CCN(C[C@H](O)c4ccc5c(n4)NC(=O)CS5)CC3)c2n1` (racemic) [Example 23, 4-Methoxy-1-[2-(RS)-2-hydroxy-2-(3-oxo-3,4-dihydro-2H-pyrido[3,2-b][1,4]-thiazin-6-yl)-ethyl]-piperidine-4-carboxylic acid (6-methoxy-[1,5]naphthyridinyl)amide dihydrochloride], the MIC is at most 4 µg/mL. Same read-out and setting: under `COc1ccc2nccc(NC(=O)C3(N)CCN(CC(O)c4ccc5c(c4)NC(=O)CS5)CC3)c2n1` (centres unmarked) [Example 12, 4-Amino-1-[2-R,S-hydroxy-2-(3-oxo-3,4-dihydro-2H-benzo[1,4]thiazin-6-yl)-ethyl]-piperidine-4-carboxylic acid (6-methoxy-[1,5]naphthyridinyl)-amide dihydrochloride] stands at most 4 µg/mL; under `COc1ccc2nccc(NC(=O)C3(N)CCN(CC(O)c4cc5c(cc4F)SCC(=O)N5)CC3)c2n1` (centres unmarked) [Example 11, 4-Amino-1-[2-(7-fluoro-3-oxo-3,4-dihydro-2H-benzo[1,4]thiazin-6-yl)-2-R,S-hydroxy-ethyl]-piperidine-4-carboxylic acid (6-methoxy-[1,5]naphthyridin-4-yl)-amide dioxalate], at most 16 µg/mL.

The same experiment, now with this note: bound holds only for some of the 11 organisms of the panel; read-out: MIC versus some of these organisms.
Regarding `COc1ccc2nccc(NC(=O)C3(C(=O)O)CCN(CCc4ccc5c(c4)NC(=O)CS5)CC3)c2n1` [Example 6, 4-(6-Methoxy-[1,5]naphthyridin-4-ylcarbamoyl)-1-[2-(3-oxo-3,4-dihydro-2H-benzo[1,4]thiazin-6-yl)-ethyl]-piperidine-4-carboxylic acid], the MIC is at most 64 µg/mL. As to `COc1ccc2nccc(NC(=O)[C@@]3(O)CCN(CCc4ccc5c(c4)NC(=O)CS5)C[C@@H]3OC)c2n1` [Example 19, 4-R/S-Hydroxy-3-S/R-methoxy-1-[2-(3-oxo-3,4-dihydro-2H-benzo[1,4]thiazin-6-yl)-ethyl]-piperidine-4-carboxylic acid (6-methoxy-[1,5]naphthyridinyl)-amide dihydrochloride], the MIC is at most 64 µg/mL.

Staying with this experiment, now noted: read-out: MIC versus all these organisms.
Consider `COc1ccc2nccc(NC(=O)C3(C)CCN(CCc4ccc5c(c4)NC(=O)CS5)CC3)c2n1` [Example 1, 4-Methyl-1-[2-(3-oxo-3,4-dihydro-2H-benzo[1,4]thiazin-6-yl)-ethyl]-piperidine-4-carboxylic acid (6-methoxy-[1,5]naphthyridin-4-yl)amide oxalate], for which the MIC was at most 4 µg/mL. Still for that read-out and setting: with `COc1ccc2nccc(NC(=O)C3(N)CCN(CCc4ccc5c(c4)NC(=O)CS5)CC3)c2n1` [Example 2, 4-Amino-1-[2-(3-oxo-3,4-dihydro-2H-benzo[1,4]thiazin-6-yl)-ethyl]-piperidine-4-carboxylic acid (6-methoxy-[1,5]naphthyridin-4-yl)amide dioxalate] the figure was at most 4 µg/mL.

With `COc1ccc2nccc(NC(=O)C3(O)CCN(CCc4ccc5c(c4)NC(=O)CS5)CC3)c2n1` [Example 5, 4-Hydroxy-1-[2-(3-oxo-3,4-dihydro-2H-benzo[1,4]thiazin-6-yl)-ethyl]-piperidine-4-carboxylic acid (6-methoxy-[1,5]naphthyridin-4-yl)-amide oxalate], the minimal inhibitory concentration (MIC) is at most 64 µg/mL. On the same count and under the same terms, with `COc1ccc2nccc(NC(=O)C3(O)CCN(CCc4ccc5c(c4)OCO5)CC3)c2n1` [Example 3, 1-(2-Benzo[1,3]dioxol-5-yl-ethyl)-4-hydroxy-piperidine-4-carboxylic acid (6-methoxy-[1,5]naphthyridin-4yl)amide oxalate] the figure was at most 16 µg/mL; with `COc1ccc2nccc(NC(=O)C3(C#N)CCN(CCc4ccc5c(c4)NC(=O)CS5)CC3)c2n1.Cl.Cl` [Example 20, 4-Cyano-1-[2-(3-oxo-3,4-dihydro-2H-benzo[1,4]thiazin-6-yl)-ethyl]-piperidine-4-carboxylic acid (6-methoxy-[1,5]naphthyridin-4-yl)-amide dihydrochloride], at most 64 µg/mL; with `COc1ccc2nccc(NC(=O)C3(C)CCN(CCc4ccc5c(c4)OCO5)CC3)c2n1` [Example 4, 1-(2-Benzo[1,3]dioxol-5-yl-ethyl)4-methylpiperidine-4-carboxylic acid (6-methoxy-[1,5]naphthyridin-4-yl)-amide oxalate], at most 16 µg/mL.

`COc1ccc2nccc(NC(=O)C3(O)CCN(CC(=O)c4ccc5c(c4)NC(=O)CS5)CC3)c2n1` [Example 8, 4-Hydroxy-1-[2-oxo-2-(3-oxo-3,4-dihydro-2H-benzo[1,4]thiazin-6-yl)-ethyl]-piperidine-4-carboxylic acid (6-methoxy-[1,5]naphthyridin-4-yl)-amide oxalate]: the MIC is at most 64 µg/mL.

As to `COc1ccc2nccc(NC(=O)C3(O)CCN(CCc4cc5c(nn4)SCC(=O)N5)CC3)c2n1` [Example 14, 4-Hydroxy-1-[2-(6-oxo-6,7-dihydro-5H-pyridazino[3,4-b][1,4]thiazin-3-yl)-ethyl]-piperidine-4-carboxylic acid (6-methoxy-[1,5]naphthyridin-4-yl)-amide dihydrochloride], the MIC was at most 4 µg/mL. Regarding `COc1ccc2nccc(NC(=O)C3(CO)CCN(CCc4ccc5c(c4)NC(=O)CS5)CC3)c2n1` [Example 10, 4-Hydroxymethyl-1-[2-(3-oxo-3,4-dihydro-2H-benzo[1,4]thiazin-6-yl)-ethyl]-piperidine-4-carboxylic acid (6-methoxy-[1,5]naphthyridin-4-yl)-amide oxalate], the MIC was at most 4 µg/mL. `COc1ccc2nccc(NC(=O)C3(O)CCN(CC(O)c4ccc5c(c4)OCCO5)CC3)c2n1` (racemic) [Example 13, 1-[2-(2,3-Dihydro-benzo[1,4]dioxin-6-yl)-2-(R,S)-hydroxy-ethyl]-4-hydroxy-piperidine-4-carboxylic acid (6-methoxy-[1,5]naphthyridin-4-yl)-amide dihydrochloride]: the MIC was at most 16 µg/mL.

The values above are taken from US20040198756A1, “Medicaments” (priority 2001, published 2004).
